Reference: PMC11747885, “Potent inhibitors of the human RNA ligase Rlig1 highlights its role in RNA integrity maintenance under oxidative cellular stress” (Chemical Science, 2025)
Read-outs that look alike come from different tables or passages of the source. No end group written: not given here.

Target: T1, Rlig1-AMP (Homo sapiens, UniProt Q8N999)
T1 construct: made in house; host or cells: E. coli BL21 (DE3), pET15b-Rlig1
Test: FRET-based high-throughput screening of inhibitors for Rlig1-AMP
Type: biochemical

[1] = HTS hits, MedChemExpress library
[2] = HTS hits, difference of raw data without and with enzyme
[3] = HTS hits, difference of raw data w/o and w enzyme
[4] = HTS hits, normalised value of 1-D Distance

T1 sequence (Q8N999 whole entry): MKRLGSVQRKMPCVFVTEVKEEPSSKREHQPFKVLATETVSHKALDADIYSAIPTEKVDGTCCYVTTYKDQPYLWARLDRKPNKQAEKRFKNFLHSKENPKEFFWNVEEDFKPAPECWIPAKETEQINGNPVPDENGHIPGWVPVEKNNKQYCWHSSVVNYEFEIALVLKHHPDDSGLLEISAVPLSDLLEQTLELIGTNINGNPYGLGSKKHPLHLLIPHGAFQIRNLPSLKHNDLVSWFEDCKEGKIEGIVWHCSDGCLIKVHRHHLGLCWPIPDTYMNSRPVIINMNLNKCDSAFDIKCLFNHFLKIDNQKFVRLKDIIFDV

Row | Compound | 1-D Distance [2] | Raw data [w Enyzm] (HTS hits, with enzyme) | Raw data [w/o Enzym] (HTS hits, without enzyme) | 1-D Distance [3] | 1-D Distance.npi [4] | also measured
1 | CCCCCOc1ccccc1/C(=C\SC)n1ccnc1.Cl [Neticonazole (hydrochloride)] | 1715 | 9255 | 10970 |  |  | 1-D Distance.npi [1]: 74.1423
2 | Cl.Cl.Cn1cc(NC(=O)c2cc(NC(=O)CN=C(N)N)cn2C)cc1C(=O)NCCC(=N)N [Netropsin (dihydrochloride)] |  | 8749 |  | 1774 | 75.4127 | 
3 | CC1CS(=O)(=O)CCN1/N=C/c1ccc([N+](=O)[O-])o1 (stereo not shown) [Nifurtimox] |  | 7893 |  | 1863 |  | 
4 | CCCCCCCCN=c1ccn(CCCCCCCCCCn2ccc(=NCCCCCCCC)cc2)cc1.Cl.Cl [Octenidine (dihydrochloride)] |  | 8818 | 7318 | 1500 | 76.2265 | 
5 | Cl[TeH]1(Cl)(Cl)OCCO1 [Ossirene] |  | 4805 | 6468 | 1663 |  | 
6 | NC[C@@H]1O[C@H](O[C@H]2[C@@H](O)[C@H](O[C@@H]3[C@@H](O)[C@H](N)C[C@H](N)[C@H]3O[C@H]3O[C@H](CO)[C@@H](O)[C@H](O)[C@H]3N)O[C@@H]2CO)[C@H](N)[C@@H](O)[C@@H]1O.O=S(=O)(O)O [Paromomycin (sulfate)] |  | 8444 | 9664 | 1220 | 82.0351 | 
7 | COS(=O)(=O)[O-].C[n+]1c2ccccc2nc2ccccc21 [Phenazine (methylsulfate)] | 1419 | 2478 | 3897 |  |  | 1-D Distance.npi [1]: 78.9166
8 | c1cnc(N2CCN(Cc3ccc4c(c3)OCO4)CC2)nc1 [Piribedil] | 1702 | 9369 | 11071 |  |  | 
9 | NCCNc1ccc(NCCN)c2c1C(=O)c1ccncc1C2=O.O=C(O)/C=C\C(=O)O.O=C(O)/C=C\C(=O)O [Pixantrone (dimaleate)] | 1138 | 4061 | 5199 |  |  | 1-D Distance.npi [1]: 84.4919
10 | CC(C)c1cccc(C(C)C)c1O [Propofol] |  |  |  |  |  | 1-D Distance: 1959; Raw data [w Enyzm]: 8754; Raw data [w/o Enzym]: 10713
11 | CCC(O)C(=O)[O-].[Na+] (stereo not shown) [Sodium 2-hydroxybutanoate] |  | 8789 | 10677 | 1888 | 73.0807 | 
12 | O.O=C1C=CC[C@@H]2[C@H]3CCCN4CCC[C@@H](CN12)[C@@H]34 [Sophocarpine (monohydrate)] |  | 8885 | 10719 | 1834 | 71.833 | 
13 | COc1cc(S(=O)(=O)[O-])ccc1O.[K+] [Sulfogaiacol] |  |  |  |  |  | 1-D Distance.npi (sheet HTS hits, MedChemExpress library): 81.4409; 1-D Distance (sheet HTS hits, difference of raw data w/o and w enzyme): 1427; Raw data [w Enyzm] (sheet HTS hits, with enzyme): 8908; Raw data [w/o Enzym] (sheet HTS hits, without enzyme): 10335
14 | Cn1ncnc2c(=O)n(C)c(=O)nc1-2 [Toxoflavin] |  | 16186 | 17205 | 1019 |  | 1-D Distance.npi (HTS hits, normalized value (npi)): 89.8188
15 | C/C=C/c1cc(OC)c(OC)cc1OC [alpha-Asarone] |  | 8891 | 10653 | 1762 | 73.1231 | 
16 | LL-37, human (TFA) | 99 | 6495 | 6396 |  |  | 1-D Distance.npi [1]: 104.017
17 | Lactoferrin (17-41) (acetate) (TKCFQWQRNMRKVRGPPVSCIKRDS; ends and bridges not checked; also: acetate salt; UniProt P02788 36-60, looked up, fragment) |  | 8755 | 10176 | 1421 | 74.4696 | 
18 | Plicamycin | 1957 | 9254 | 11211 |  |  | 
19 | Verteporfin |  | 1492 | 2728 | 1236 | 82.5479 | 
20 | Vitamin B12 |  | 5329 | 5909 | 580 | 94.3021 | 
